Test results: article PMC4800267 (Assay and Drug Development Technologies, 2016)
pIC50: −log10 of the molar value. “And” between values parts separate entries of the source, which are not always exact repeats. Equal values may be shown once. “Also recorded” adds a separate entry of the source. Read-outs that look alike come from different tables or passages of the source.

Experiments:
rat Nav1.7 = details: cited from earlier work
Nav1.1 = details: read-out: IC50 Nav1.1; cited from earlier work
Nav1.3 = details: read-out: IC50 Nav1.3; cited from earlier work
[1] = system: endogenous TTX-S currents in ND7-23 cells; assay: cells; format: cell-based, rodent; details: for effect on resting- or inactivated-state TTX-S currents: 300 nM
rNav1.4 = rNav1.4 in Xenopus oocytes; cited from earlier work
hNav1.7 = hNav1.7 (Homo sapiens, UniProt Q15858); details: hNav1.7 in Xenopus oocytes; cited from earlier work
hNav1.3 = hNav1.3 (Homo sapiens, UniProt Q9NY46); format: cell-based; details: inactivated-state Peak 2
mNav1.6 = mNav1.6 in Xenopus oocytes; cited from earlier work
hNav1.5 = hNav1.5 on QPatch; cited from earlier work

Chain of hNav1.3 (Q9NY46 whole entry): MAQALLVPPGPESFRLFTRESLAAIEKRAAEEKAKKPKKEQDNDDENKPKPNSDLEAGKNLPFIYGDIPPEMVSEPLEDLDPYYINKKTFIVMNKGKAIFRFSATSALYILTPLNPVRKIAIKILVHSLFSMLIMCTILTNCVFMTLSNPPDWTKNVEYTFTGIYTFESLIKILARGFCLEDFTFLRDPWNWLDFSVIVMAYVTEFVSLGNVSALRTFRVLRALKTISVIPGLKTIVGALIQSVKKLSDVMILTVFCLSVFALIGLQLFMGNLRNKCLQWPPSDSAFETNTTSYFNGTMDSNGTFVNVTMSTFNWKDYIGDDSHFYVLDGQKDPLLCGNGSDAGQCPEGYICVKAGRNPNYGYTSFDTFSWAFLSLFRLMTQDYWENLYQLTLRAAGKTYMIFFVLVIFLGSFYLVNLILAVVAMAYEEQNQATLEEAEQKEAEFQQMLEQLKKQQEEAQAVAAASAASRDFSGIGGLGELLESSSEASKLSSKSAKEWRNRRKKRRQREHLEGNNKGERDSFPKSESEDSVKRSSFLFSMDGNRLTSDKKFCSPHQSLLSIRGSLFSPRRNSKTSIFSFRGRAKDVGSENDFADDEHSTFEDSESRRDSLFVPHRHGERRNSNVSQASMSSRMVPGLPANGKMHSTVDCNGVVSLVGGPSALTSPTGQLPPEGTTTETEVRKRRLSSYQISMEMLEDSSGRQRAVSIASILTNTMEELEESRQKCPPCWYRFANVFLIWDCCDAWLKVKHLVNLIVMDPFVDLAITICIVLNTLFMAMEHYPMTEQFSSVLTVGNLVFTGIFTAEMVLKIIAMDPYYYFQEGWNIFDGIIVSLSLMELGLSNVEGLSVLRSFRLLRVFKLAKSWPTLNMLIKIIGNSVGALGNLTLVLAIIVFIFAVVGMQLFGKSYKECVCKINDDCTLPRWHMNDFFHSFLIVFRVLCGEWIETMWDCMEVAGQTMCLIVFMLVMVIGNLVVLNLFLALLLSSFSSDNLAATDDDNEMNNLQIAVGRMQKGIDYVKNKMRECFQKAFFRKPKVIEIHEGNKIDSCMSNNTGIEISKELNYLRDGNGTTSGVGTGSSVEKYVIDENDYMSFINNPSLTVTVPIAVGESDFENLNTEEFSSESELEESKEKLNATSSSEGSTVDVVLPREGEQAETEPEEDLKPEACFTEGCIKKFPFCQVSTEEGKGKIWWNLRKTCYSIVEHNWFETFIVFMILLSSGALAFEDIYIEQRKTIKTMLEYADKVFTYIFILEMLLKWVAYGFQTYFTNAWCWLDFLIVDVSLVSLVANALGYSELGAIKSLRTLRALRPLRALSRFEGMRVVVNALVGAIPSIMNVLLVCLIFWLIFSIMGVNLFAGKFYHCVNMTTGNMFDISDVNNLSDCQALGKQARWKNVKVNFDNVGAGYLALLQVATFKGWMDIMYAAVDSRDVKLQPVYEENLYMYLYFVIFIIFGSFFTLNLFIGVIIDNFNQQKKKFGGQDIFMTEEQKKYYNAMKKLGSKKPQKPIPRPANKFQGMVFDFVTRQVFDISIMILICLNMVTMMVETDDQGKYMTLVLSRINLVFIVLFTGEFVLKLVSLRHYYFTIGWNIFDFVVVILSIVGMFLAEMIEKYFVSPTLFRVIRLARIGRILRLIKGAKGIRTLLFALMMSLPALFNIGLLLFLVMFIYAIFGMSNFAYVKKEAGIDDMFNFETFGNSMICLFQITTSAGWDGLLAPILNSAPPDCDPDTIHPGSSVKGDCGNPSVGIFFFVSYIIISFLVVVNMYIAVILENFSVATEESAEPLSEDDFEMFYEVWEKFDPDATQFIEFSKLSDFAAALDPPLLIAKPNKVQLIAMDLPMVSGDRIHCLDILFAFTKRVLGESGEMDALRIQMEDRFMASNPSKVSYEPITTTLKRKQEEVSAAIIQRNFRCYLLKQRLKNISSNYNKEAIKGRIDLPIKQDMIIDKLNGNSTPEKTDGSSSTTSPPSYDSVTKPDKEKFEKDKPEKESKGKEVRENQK
Chain of hNav1.7 (Q15858 whole entry): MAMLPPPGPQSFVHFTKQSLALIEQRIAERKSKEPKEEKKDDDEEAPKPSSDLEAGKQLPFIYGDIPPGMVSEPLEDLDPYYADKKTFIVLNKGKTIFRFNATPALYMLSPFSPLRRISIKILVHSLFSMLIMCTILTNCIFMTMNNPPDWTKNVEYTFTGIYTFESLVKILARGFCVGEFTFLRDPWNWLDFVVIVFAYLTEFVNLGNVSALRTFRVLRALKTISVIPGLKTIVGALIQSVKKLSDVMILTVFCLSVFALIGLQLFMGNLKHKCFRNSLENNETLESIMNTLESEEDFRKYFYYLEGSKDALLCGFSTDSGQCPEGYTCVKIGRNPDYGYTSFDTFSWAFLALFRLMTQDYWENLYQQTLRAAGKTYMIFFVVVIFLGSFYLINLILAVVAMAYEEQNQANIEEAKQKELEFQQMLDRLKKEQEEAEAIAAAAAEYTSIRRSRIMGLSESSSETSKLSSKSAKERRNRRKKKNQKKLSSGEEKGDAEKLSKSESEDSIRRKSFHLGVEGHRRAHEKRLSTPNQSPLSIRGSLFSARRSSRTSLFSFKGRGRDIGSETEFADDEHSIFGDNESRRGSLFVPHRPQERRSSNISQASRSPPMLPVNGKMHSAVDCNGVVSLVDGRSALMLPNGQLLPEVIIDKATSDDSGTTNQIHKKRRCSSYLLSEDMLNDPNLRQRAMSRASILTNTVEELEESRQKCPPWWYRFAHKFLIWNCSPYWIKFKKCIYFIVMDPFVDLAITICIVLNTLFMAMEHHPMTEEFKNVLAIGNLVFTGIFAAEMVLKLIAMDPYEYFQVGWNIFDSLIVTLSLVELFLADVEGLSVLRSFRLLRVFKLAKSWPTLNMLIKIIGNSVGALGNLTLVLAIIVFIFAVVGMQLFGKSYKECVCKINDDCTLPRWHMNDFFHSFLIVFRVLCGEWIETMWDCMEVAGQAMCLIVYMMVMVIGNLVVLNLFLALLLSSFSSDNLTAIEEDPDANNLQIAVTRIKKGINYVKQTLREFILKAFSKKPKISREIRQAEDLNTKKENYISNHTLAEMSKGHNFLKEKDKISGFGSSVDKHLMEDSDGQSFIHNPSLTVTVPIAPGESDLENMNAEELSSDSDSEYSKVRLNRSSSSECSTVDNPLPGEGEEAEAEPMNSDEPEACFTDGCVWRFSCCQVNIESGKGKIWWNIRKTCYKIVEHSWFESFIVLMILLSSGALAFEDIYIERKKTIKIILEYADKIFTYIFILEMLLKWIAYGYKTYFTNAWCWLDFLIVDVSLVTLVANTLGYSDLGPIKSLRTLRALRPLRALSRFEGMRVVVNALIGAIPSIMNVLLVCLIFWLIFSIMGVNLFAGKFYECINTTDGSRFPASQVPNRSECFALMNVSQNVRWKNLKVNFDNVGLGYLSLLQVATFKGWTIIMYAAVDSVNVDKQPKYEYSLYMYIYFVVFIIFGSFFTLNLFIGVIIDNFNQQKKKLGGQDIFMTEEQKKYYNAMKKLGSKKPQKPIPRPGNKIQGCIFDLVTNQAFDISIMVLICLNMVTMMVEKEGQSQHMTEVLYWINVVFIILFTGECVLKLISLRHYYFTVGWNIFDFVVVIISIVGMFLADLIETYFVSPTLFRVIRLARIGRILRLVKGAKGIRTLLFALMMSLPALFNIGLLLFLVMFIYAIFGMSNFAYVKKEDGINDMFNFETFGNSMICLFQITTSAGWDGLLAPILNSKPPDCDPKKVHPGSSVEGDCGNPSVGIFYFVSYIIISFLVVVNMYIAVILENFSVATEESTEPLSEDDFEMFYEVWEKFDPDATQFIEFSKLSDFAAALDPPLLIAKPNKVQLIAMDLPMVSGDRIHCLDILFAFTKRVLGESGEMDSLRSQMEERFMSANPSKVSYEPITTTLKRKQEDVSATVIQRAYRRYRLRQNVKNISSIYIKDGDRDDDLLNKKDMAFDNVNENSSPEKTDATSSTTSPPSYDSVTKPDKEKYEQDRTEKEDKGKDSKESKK

SMILES	potency against rat Nav1.7 channels (rat Nav1.7)	pIC50 (Nav1.1)	pIC50 (Nav1.3)	effect on resting- or inactivated-state TTX-S currents [1]	effect on resting- or inactivated-state TTX-S currents ([1]; listed as Icagen Nav1.3 antagonist)	reduction of resting-state Peak 1 TTX-S current ([1]; 1 μM, Peak 1, mean ± SEM)	reduction of inactivated Peak 2 TTX-S current ([1]; 1 μM, Peak 2, mean ± SEM)	inhibition at 0.3 µM ([1]; ND7/23, read-out: ND7-23 TTX-S % Inhibition, Peak 1)	inhibition at 0.3 µM ([1]; ND7/23, read-out: ND7-23 TTX-S % Inhibition, Peak 2)	pIC50 ([1]; ND7/23, read-out: ND7-23 TTX-S IC50, Peak 1)	pIC50 ([1]; ND7/23, read-out: ND7-23 TTX-S IC50, Peak 2)	inhibition at 0.3 µM ([1]; ND7/23, read-out: inhibition of inward TTX-S currents)	inhibition of TTX-S currents, maximum over all concentrations tested ([1]; all test concentrations)	effects on resting or inactivated current amplitudes (rNav1.4)	effects on resting or inactivated current amplitudes (hNav1.7)	hillslope, Peak 2 (hNav1.3)	effects on resting or inactivated current amplitudes (mNav1.6)	effects on resting or inactivated current amplitudes (hNav1.5)
O=C(Nc1ccc(S(=O)(=O)Nc2nccs2)cc1)C(c1ccccc1)c1ccccc1 [ICA-121431]	low nanomolar potency	~7.70	~7.70															
O=C(Nc1ccc(S(=O)(=O)Nc2nccs2)cc1)[C@@H]1C[C@H]1c1ccccc1 [Icagen compound 68, (1R,2R)-2-phenyl-N-(4-(N-(thiazol-2-yl)sulfamoyl)phenyl)cyclopropane-1-carboxamide]				no effect; also recorded: negligible effects	no significant effect	0.7% ± 3.0%	8.5% ± 1.7% and 8.5%	0.8%	-0.5%	< 5.00	< 5.00	~0.5%	< 50%	no significant effects	no significant effects	1.2	no significant effects	no significant effects
